Laboratory results taken from ChEMBL document CHEMBL1201862, “PubChem BioAssay data set” (2004).
Where “and” joins values, the source holds several entries; their conditions need not be identical. Equal entries are not always repeated.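 Assay format: 96-well plates, 48-hour exposure. GI50 is the concentration that inhibits growth by half.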 Calls of active or inactive are those of the source. Rule as the data show it: active = GI50 up to about 1.1 µM and inactive = higher.

Columns and labels:
Assay in all cases: DTP human tumour cell line panel, 48 h
NCI-H23 = test system: NCI-H23
HT-29 = test system: HT-29
EKVX = test system: EKVX
UACC-62 = test system: UACC-62
OVCAR-3 = test system: OVCAR-3
UO-31 = test system: UO-31
A498 = test system: A498
SNB-19 = test system: SNB-19
MOLT-4 = test system: MOLT-4
HOP-62 = test system: HOP-62
SNB-75 = test system: SNB-75
IGROV-1 = test system: IGROV-1
RXF 393 = test system: RXF 393
OVCAR-5 = test system: OVCAR-5
UACC-257 = test system: UACC-257
HOP-92 = test system: HOP-92
SK-MEL-2 = test system: SK-MEL-2
OVCAR-8 = test system: OVCAR-8
MCF7 = test system: MCF7

| Compound | GI50 (NCI-H23) | GI50 (HT-29) | GI50 (EKVX) | GI50 (UACC-62) | GI50 (OVCAR-3) | GI50 (UO-31) | GI50 (A498) | GI50 (SNB-19) | GI50 (MOLT-4) | GI50 (HOP-62) | GI50 (SNB-75) | GI50 (IGROV-1) | GI50 (RXF 393) | GI50 (OVCAR-5) | GI50 (UACC-257) | GI50 (HOP-92) | GI50 (SK-MEL-2) | GI50 (OVCAR-8) | GI50 (MCF7) |
| --- | --- | --- | --- | --- | --- | --- | --- | --- | --- | --- | --- | --- | --- | --- | --- | --- | --- | --- | --- |
| N#CC1=C(N)Oc2c(ccc3cccnc23)C1c1ccccc1 (stereo not given) | 1.31 µM (inactive) | 0.339 µM (active) | 4.78 µM (inactive) | 0.697 µM (active) | 0.608 µM (active) | 4.46 µM (inactive) | 2.21 µM (inactive) | 5.3 µM (inactive) | 0.667 µM (active) | 1.16 µM (inactive) | 0.731 µM (active) | 0.847 µM (active) | 2.13 µM (inactive) | 72.4 µM (inactive) | 3.61 µM (inactive) | 9.35 µM (inactive) | 0.296 µM (active) | 3.38 µM (inactive) |  |
| CN(C)c1ccc(/C=C2\C=Cc3ccccc32)cc1 | 35.6 µM (inactive) | 40.4 µM (inactive) |  | 42.3 µM (inactive) | 73.6 µM (inactive) | 20.2 µM (inactive) | 42.7 µM (inactive) | 59.2 µM (inactive) | 32.1 µM (inactive) | > 100 µM (inactive) | 11.3 µM (inactive) | 53.7 µM (inactive) | 17.9 µM (inactive) | > 100 µM (inactive) |  | 44.5 µM (inactive) | 90.6 µM (inactive) | 94.8 µM (inactive) |  |
| CN(C)CCSc1nccc(-c2cc3ccccc3s2)n1 | > 10 µM (inactive) | 9.06 µM (inactive) |  | 20.4 µM (inactive) | 44.5 µM (inactive) | 19.1 µM (inactive) | 20.1 µM (inactive) |  | 26.2 µM (inactive) | 23.8 µM (inactive) | 54 µM (inactive) | 42.3 µM (inactive) | 18.5 µM (inactive) | 27.2 µM (inactive) | > 10 µM (inactive) | 2.87 µM (inactive) | 17.3 µM (inactive) | 22.3 µM (inactive) |  |
| C[C@]12CC[C@H]3[C@@H](CC=C4C[C@@H](O)CC[C@@]43C)[C@@H]1C/C(=C\c1cccnc1)[C@@H]2O | 13.1 µM (inactive) | 43.8 µM (inactive) | 3.97 µM (inactive) | 7.96 µM (inactive) |  | 55.5 µM (inactive) | 7.14 µM (inactive) | 16 µM (inactive) |  | 4.67 µM (inactive) |  | 24.7 µM (inactive) | 15 µM (inactive) | 41.4 µM (inactive) | 39.2 µM (inactive) | 11.9 µM (inactive) | 30.8 µM (inactive) | 6.89 µM (inactive) | 6.75 µM (inactive) |
| CCc1n[nH]c(=O)n1/N=C/c1ccccc1O | > 100 µM (inactive) |  | > 100 µM (inactive) | > 100 µM (inactive) | > 100 µM (inactive) | > 100 µM (inactive) |  | > 100 µM (inactive) | > 100 µM (inactive) | > 100 µM (inactive) | > 100 µM (inactive) | 64.9 µM (inactive) | > 100 µM (inactive) | > 100 µM (inactive) | > 100 µM (inactive) | > 100 µM (inactive) | > 100 µM (inactive) | > 100 µM (inactive) | > 100 µM (inactive) |
| Cc1nc(O)nc(CC(O)(c2ccccc2)c2ccccc2)c1-c1ccccc1 | > 100 µM (inactive) | > 100 µM (inactive) | > 100 µM (inactive) | > 100 µM (inactive) | > 100 µM (inactive) | 50.1 µM (inactive) | > 100 µM (inactive) | > 100 µM (inactive) | > 100 µM (inactive) | > 100 µM (inactive) | 52.6 µM (inactive) | > 100 µM (inactive) | > 100 µM (inactive) | > 100 µM (inactive) | > 100 µM (inactive) | 55.8 µM (inactive) | > 100 µM (inactive) | > 100 µM (inactive) |  |
| COc1ccc(/C=N/NC(=O)NCCNCCO)cc1 | > 100 µM (inactive) | > 100 µM (inactive) |  | > 100 µM (inactive) | > 100 µM (inactive) | > 100 µM (inactive) | > 100 µM (inactive) |  | > 100 µM (inactive) | > 100 µM (inactive) | > 100 µM (inactive) | > 100 µM (inactive) | > 100 µM (inactive) | > 100 µM (inactive) | > 100 µM (inactive) | > 100 µM (inactive) | > 100 µM (inactive) | > 100 µM (inactive) |  |
| COc1cc(-c2c(C(C)=O)c(-c3ccccc3)n(C3OC(COC(C)=O)C(OC(C)=O)C(OC(C)=O)C3OC(C)=O)c(=S)c2C#N)ccc1O (stereo not given) | 72.8 µM (inactive) | 76.6 µM (inactive) and 76.9 µM (inactive) | 57.4 µM (inactive) | 59.2 µM (inactive) |  | > 100 µM (inactive) and 55.1 µM (inactive) | > 100 µM (inactive) | > 100 µM (inactive) | 58.9 µM (inactive) and 60.1 µM (inactive) | > 100 µM (inactive) |  |  | > 100 µM (inactive) and 78.5 µM (inactive) | > 100 µM (inactive) |  | 36.6 µM (inactive) |  |  | > 100 µM (inactive) and 81.5 µM (inactive) |
| N=C(NNS(=O)(=O)c1ccccc1)Oc1ccc(Br)cc1Br | 84.7 µM (inactive) | 55.7 µM (inactive) | > 100 µM (inactive) | > 100 µM (inactive) | > 100 µM (inactive) | > 100 µM (inactive) | > 100 µM (inactive) | > 100 µM (inactive) | > 100 µM (inactive) | > 100 µM (inactive) | 94.2 µM (inactive) | > 100 µM (inactive) | > 100 µM (inactive) | > 100 µM (inactive) | > 100 µM (inactive) | 44.8 µM (inactive) | > 100 µM (inactive) | > 100 µM (inactive) |  |
| CS/C(=N/C(=O)c1ccccc1Cl)SCCS/C(=N\C(=O)c1ccccc1Cl)SC | > 100 µM (inactive) | > 100 µM (inactive) | > 100 µM (inactive) | > 100 µM (inactive) | > 100 µM (inactive) | > 100 µM (inactive) | > 100 µM (inactive) | > 100 µM (inactive) | > 100 µM (inactive) | > 100 µM (inactive) | > 100 µM (inactive) | > 100 µM (inactive) | > 100 µM (inactive) | > 100 µM (inactive) | > 100 µM (inactive) | 19.6 µM (inactive) | > 100 µM (inactive) | > 100 µM (inactive) |  |
| OCCN(CCO)c1ncnc2c1sc(=S)n2-c1ccccc1 | > 100 µM (inactive) | > 100 µM (inactive) | > 100 µM (inactive) | > 100 µM (inactive) | > 100 µM (inactive) | > 100 µM (inactive) | 46 µM (inactive) | > 100 µM (inactive) | > 100 µM (inactive) | > 100 µM (inactive) | > 100 µM (inactive) | > 100 µM (inactive) | > 100 µM (inactive) | > 100 µM (inactive) | > 100 µM (inactive) | > 100 µM (inactive) | > 100 µM (inactive) | > 100 µM (inactive) |  |
| CC1=NN(C(=O)c2ccncc2)C(=O)C1/N=N/c1ccc(F)cc1 (stereo not given) | > 100 µM (inactive) | > 100 µM (inactive) | 20 µM (inactive) | > 100 µM (inactive) | > 100 µM (inactive) | 45.3 µM (inactive) | 60.5 µM (inactive) | > 100 µM (inactive) |  |  | 21.5 µM (inactive) | > 100 µM (inactive) | 58.1 µM (inactive) | > 100 µM (inactive) | > 100 µM (inactive) | 51.6 µM (inactive) | > 100 µM (inactive) | > 100 µM (inactive) |  |
| CC1CC/C(=C\c2ccc(F)cc2)C2=C1C(c1ccc(F)cc1)n1c(s/c(=C/c3cccc(Br)c3)c1=O)=N2 (stereo not given) |  | > 100 µM (inactive) | > 100 µM (inactive) | > 100 µM (inactive) |  |  | > 100 µM (inactive) | > 100 µM (inactive) | > 100 µM (inactive) | > 100 µM (inactive) | > 100 µM (inactive) | > 100 µM (inactive) | > 100 µM (inactive) | > 100 µM (inactive) | > 100 µM (inactive) | > 100 µM (inactive) | > 100 µM (inactive) | > 100 µM (inactive) | > 100 µM (inactive) |
| CCOC(=O)C12CCSC1C1(C#N)C(C#N)=CC2(N=P(c2ccccc2)(c2ccccc2)c2ccccc2)n2c(=O)n(-c3ccccc3)c(=O)n21 (stereo not given) | 49.7 µM (inactive) | 39.8 µM (inactive) | 82.2 µM (inactive) | 27.5 µM (inactive) | 25.4 µM (inactive) | 24.2 µM (inactive) | 51.5 µM (inactive) | 39.3 µM (inactive) | 30.3 µM (inactive) | 46.2 µM (inactive) | 47 µM (inactive) | 59.8 µM (inactive) | > 100 µM (inactive) | > 100 µM (inactive) | 33.6 µM (inactive) | 12.4 µM (inactive) | 48.6 µM (inactive) | 47.1 µM (inactive) |  |
| COc1cc2c(cc1OC)C(Cc1ccc(Oc3cc(CC4c5cc(OC)c(OC)cc5CCN4C)ccc3O)cc1)N(C)CC2 (stereo not given) | 51.2 µM (inactive) | 13.1 µM (inactive) | 88.5 µM (inactive) | 17.4 µM (inactive) | 19.5 µM (inactive) | 14.5 µM (inactive) | 22 µM (inactive) | 40.6 µM (inactive) | 14.2 µM (inactive) | 24.3 µM (inactive) | 14.8 µM (inactive) | 23.1 µM (inactive) | 11.9 µM (inactive) | > 100 µM (inactive) | 16.2 µM (inactive) | 24.3 µM (inactive) | 16.1 µM (inactive) | 87.3 µM (inactive) |  |
| CCN(CCCl)CCCCCNc1c2ccccc2nc2ccc(OC)cc12 | 0.356 µM (active) | 0.259 µM (active) | 3.79 µM (inactive) | 0.402 µM (active) | 1.83 µM (inactive) | 2.88 µM (inactive) | 1.26 µM (inactive) | 1.16 µM (inactive) | 0.0155 µM (active) | 2.14 µM (inactive) | 0.942 µM (active) | 0.578 µM (active) | 1.07 µM (active) | 1.55 µM (inactive) | 3.22 µM (inactive) | 0.436 µM (active) | 1.09 µM (active) | 0.533 µM (active) |  |
